Measurements as given in US20240043403A1, “HETEROARYL CARBOXAMIDE COMPOUND” (Astellas Pharma Inc., priority 2020, published 2024).

Each molecule was assayed against human recombinant DGK ξ (Homo sapiens (Human), UniProt Q13574) (assay: Evaluation of DGK ξ inhibitory effect (ADP-Glo Kinase Assay)). Conditions: ADP-Glo luminescence.
Type: biochemical
Procedure: Test Example 1. Evaluation of DGK ξ Inhibitory Effect
The inhibitory effect of a test compound on human recombinant DGK ξ (Cama Biosciences, Inc., 12-410-20N) was examined by the following method in which detection is performed with ADP-Glo™ Kinase Assay (Promega Corporation).
To a 384-well plate (Greiner Bio-One Co., Ltd.), 3 μL of a DGK ξ enzyme dissolved in an assay buffer (40 mM Tris-HCl pH 7.5, 10 mM MgCl2, 1 mM dithiothreitol (DTT) and 0.1 mg/mL bovine serum albumin (BSA)) (90 ng/mL) was added, and 3 μL of the test compound diluted with the same assay buffer was added so that an intended final concentration was obtained. The mixture was left standing at room temperature for 15 minutes, 3 μL of a substrate (150 μM 1-oleoyl-2-acetyl-sn-glycerol (Sigma-Aldrich Co. LLC), 480 μM phosphatidylserine (Avanti, Inc.) and 150 μM UltraPure-ATP (attached to ADP-Glo)) was then added, and the mixture was left standing at room temperature for 30 minutes to react. Thereafter, 3 μL of an ADP-Glo Reagent was added, and the mixture was left standing at room temperature for 40 minutes to stop the enzyme reaction. Further, 6 μL of a Kinase-Detection Reagent was added, the mixture was left standing at room temperature for 30 minutes, and the luminescence was then measured using ARVO X3 (PerkinElmer, Inc.). The half maximal inhibitory concentration (IC50) was calculated by Sigmoid-Emax model non-linear regression analysis, where the signal value in solvent treatment was set to 0% inhibition and the signal value without addition of the DGK ξ enzyme was set to 100% inhibition. […] In the table. Ex represents the number of each Example described below.

human recombinant DGK ξ, sequence (Q13574 whole entry): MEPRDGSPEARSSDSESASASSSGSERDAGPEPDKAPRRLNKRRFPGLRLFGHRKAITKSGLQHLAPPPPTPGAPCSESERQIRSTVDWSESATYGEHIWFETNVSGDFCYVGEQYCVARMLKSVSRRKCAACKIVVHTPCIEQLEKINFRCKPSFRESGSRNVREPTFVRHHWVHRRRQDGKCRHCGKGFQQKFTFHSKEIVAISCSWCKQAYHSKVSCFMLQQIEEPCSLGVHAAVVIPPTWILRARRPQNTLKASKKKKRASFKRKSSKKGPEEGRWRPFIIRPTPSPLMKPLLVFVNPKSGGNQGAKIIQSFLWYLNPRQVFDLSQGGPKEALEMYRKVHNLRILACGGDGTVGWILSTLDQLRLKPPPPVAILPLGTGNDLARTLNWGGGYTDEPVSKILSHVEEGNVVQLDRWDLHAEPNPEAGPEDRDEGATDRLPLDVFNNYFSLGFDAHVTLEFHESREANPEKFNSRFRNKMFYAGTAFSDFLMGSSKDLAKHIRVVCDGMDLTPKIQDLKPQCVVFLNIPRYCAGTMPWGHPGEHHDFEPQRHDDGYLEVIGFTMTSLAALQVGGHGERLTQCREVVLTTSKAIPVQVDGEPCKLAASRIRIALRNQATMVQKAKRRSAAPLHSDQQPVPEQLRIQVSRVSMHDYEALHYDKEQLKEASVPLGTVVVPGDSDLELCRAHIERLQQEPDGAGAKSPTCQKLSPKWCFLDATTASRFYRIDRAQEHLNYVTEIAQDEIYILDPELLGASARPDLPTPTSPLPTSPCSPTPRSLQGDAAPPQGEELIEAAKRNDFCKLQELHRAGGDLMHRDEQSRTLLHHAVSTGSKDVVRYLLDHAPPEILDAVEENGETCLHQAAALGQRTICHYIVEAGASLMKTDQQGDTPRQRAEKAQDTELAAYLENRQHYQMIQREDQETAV

SMILES	IC50 [nM]
NC[C@@H]1CCCN(c2c(NC(=O)c3ccn(-c4ccnnc4)n3)ccc(Oc3ccccn3)c2C(F)(F)F)C1 [Example 61]	46
NC[C@@H]1CCCN(c2c(NC(=O)c3ccn(-c4ccnnc4)n3)ccc(OC3CC3)c2-c2ccccc2)C1 [Example 63]	70
CNCCOc1cccc(-c2c(NC(=O)c3coc(-c4ccnnc4)n3)ccc(OC3CC3)c2C(F)(F)F)c1 [Example 66]	180
NCCOc1cc(-c2c(NC(=O)c3coc(-c4ccnnc4)n3)ccc(OC3CCC3)c2C(F)(F)F)ccn1 [Example 67]	35
CNCCOc1cc(-c2c(NC(=O)c3coc(-c4ccnnc4)n3)ccc(OC3CCC3)c2C(F)(F)F)ccn1 [Example 69]	60
CNCCOc1cc(-c2c(NC(=O)c3coc(-c4ccnnc4)n3)ccc(OC3CC3)c2C(F)(F)F)ccn1 [Example 70]	55
O=C(Nc1ccc(OC2CC2)c(C(F)(F)F)c1-c1cnn(C2CCNCC2)c1)c1ccn(-c2ccnnc2)n1 [Example 72]	62
NCCCn1cc(-c2c(NC(=O)c3coc(-c4ccnnc4)n3)ccc(OC3CCC3)c2C(F)(F)F)cn1 [Example 73]	43
N[C@@H]1CCN2CCN(c3c(NC(=O)c4coc(-c5ccnnc5)n4)ccc(OC4CCC4)c3C(F)(F)F)C[C@@H]12 [Example 75]	69
N[C@@H]1CCN2CCN(c3c(NC(=O)c4coc(-c5ccnnc5)n4)ccc(OC4CC4)c3C(F)(F)F)C[C@@H]12 [Example 81]	110
N[C@@H]1CCN2CCN(c3c(NC(=O)c4ccn(-c5ccnnc5)n4)ccc(OC4CC4)c3C(F)(F)F)C[C@@H]12 [Example 82]	31
CNC[C@H]1CN(c2c(NC(=O)c3ccn(-c4ccnnc4)n3)ccc(OC3CC3)c2C(F)(F)F)CCN1C [Example 88]	110
CNC[C@H]1CN(c2c(NC(=O)c3cc(C)n(-c4ccnnc4)n3)ccc(Oc3ccccc3F)c2C(F)(F)F)CCN1C [Example 92]	92
CNC[C@H]1CN(c2c(NC(=O)c3ccn(-c4ccnnc4)n3)ccc(OC3CCC3)c2C(F)(F)F)CCN1C [Example 99]	33
CNC[C@H]1CN(c2c(NC(=O)c3coc(-c4ccnnc4)n3)ccc(OC3CCC3)c2C(F)(F)F)CCN1C [Example 100]	60
CNC[C@H]1CN(c2c(NC(=O)c3ccn(-c4ccnnc4)n3)ccc(Oc3ccc(F)cc3)c2C(F)(F)F)CCN1C [Example 101]	69
CNC[C@H]1CN(c2c(NC(=O)c3coc(-c4ccnnc4)n3)ccc(Oc3ccc(F)cc3)c2C(F)(F)F)CCN1C [Example 102]	210
CNC[C@H]1CN(c2c(NC(=O)c3coc(-c4ccnnc4)n3)ccc(Oc3ccccc3F)c2C2CC2)CCN1C [Example 103]	46
CNC[C@H]1CN(c2c(NC(=O)c3ccn(-c4ccnnc4)n3)ccc(Oc3ccccc3F)c2C2CC2)CCN1C [Example 104]	37
CNC[C@H]1CN(c2c(NC(=O)c3coc(-c4ccnnc4)n3)ccc(Oc3ccccc3)c2C(F)(F)F)CCN1C [Example 105]	46
CNC[C@H]1CN(c2c(NC(=O)c3ccn(CC(F)F)n3)cc(F)c(Oc3ccccc3)c2F)CCN1C [Example 107]	220
NC[C@@H]1CCCN(c2c(NC(=O)c3ccn(CC(F)(F)F)n3)ccc(Oc3ccccc3)c2C(F)(F)F)C1 [Example 109, N-{2-[(3S)-3-(aminomethyl)piperidin-1-yl]-4-phenoxy-3-(trifluoromethyl)phenyl}-1-(2,2,2-trifluoroethyl)-1H-pyrazole-3-carboxamide]	110
NC[C@@H]1CCCN(c2c(NC(=O)c3cccn(CC(F)(F)F)c3=O)ccc(Oc3ccccc3)c2C(F)(F)F)C1 [Example 110]	190
Cc1cc(C(F)(F)F)n2nc(C(=O)Nc3ccc(Oc4ccccc4)c(C(F)(F)F)c3N3CCC[C@@H](CN)C3)cc2n1 [Example 111]	280
CN1CCN(c2c(NC(=O)c3ccn(CC(F)F)n3)ccc(Oc3ccccc3F)c2Cl)C[C@@H]1CN [Example 112, N-{2-[(3S)-3-(aminomethyl)-4-methylpiperazin-1-yl]-3-chloro-4-(2-fluorophenoxy)phenyl}-1-(2,2-difluoroethyl)-1H-pyrazole-3-carboxamide]	52
CN(C)CCOc1cccc(-c2c(NC(=O)c3coc(-c4ccnnc4)n3)ccc(OC3CC3)c2C(F)(F)F)c1 [Example 114]	37
CN(C)C[C@H]1CN(c2c(NC(=O)c3coc(-c4ccnnc4)n3)ccc(Oc3ccccc3)c2C(F)(F)F)CCN1C [Example 116]	44

These reach a lower IC50. Values come first.

IC50 [nM]	SMILES
11	CNC[C@H]1CN(c2c(NC(=O)c3ccn(-c4ccnnc4)n3)ccc(-c3ccccc3F)c2C(F)(F)F)CCN1C [Example 59]
27	CNC[C@H]1CN(c2c(NC(=O)c3coc(-c4ccnnc4)n3)ccc(-c3ccccc3F)c2C(F)(F)F)CCN1C [Example 60]
6.9	Cc1ccccc1Oc1ccc(NC(=O)c2ccn(-c3ccnnc3)n2)c(N2CCC[C@@H](CN)C2)c1C(F)(F)F [Example 62]
13	COCCNC[C@@H]1CCCN(c2c(NC(=O)c3ccn(-c4ccnnc4)n3)ccc(Oc3ccccc3F)c2C(F)(F)F)C1 [Example 64]
22	NCCOc1cccc(-c2c(NC(=O)c3coc(-c4ccnnc4)n3)ccc(OC3CC3)c2C(F)(F)F)c1 [Example 65]
24	NCCOc1cc(-c2c(NC(=O)c3coc(-c4ccnnc4)n3)ccc(OC3CC3)c2C(F)(F)F)ccn1 [Example 68]
21	O=C(Nc1ccc(OC2CCC2)c(C(F)(F)F)c1-c1cnn(C2CCNCC2)c1)c1coc(-c2ccnnc2)n1 [Example 71]
16	NCCCn1cc(-c2c(NC(=O)c3ccn(-c4ccnnc4)n3)ccc(OC3CCC3)c2C(F)(F)F)cn1 [Example 74]
7.6	CN[C@@H]1CCN2CCN(c3c(NC(=O)c4coc(-c5ccnnc5)n4)ccc(Oc4ccccc4)c3C(F)(F)F)C[C@@H]12 [Example 76]
5.6	N[C@@H]1CCN2CCN(c3c(NC(=O)c4ccn(-c5ccnnc5)n4)ccc(Oc4ccccc4F)c3C(F)(F)F)C[C@@H]12 [Example 77]
1.3	CN[C@@H]1CCN2CCN(c3c(NC(=O)c4ccn(-c5ccnnc5)n4)ccc(Oc4ccccc4F)c3C(F)(F)F)C[C@@H]12 [Example 78]
7.8	NCCOc1cc(-c2c(NC(=O)c3ccn(-c4ccnnc4)n3)ccc(OC3CCC3)c2C(F)(F)F)ccn1 [Example 79]
3.5	CN[C@@H]1CCN2CCN(c3c(NC(=O)c4coc(-c5ccnnc5)n4)ccc(Oc4ccccc4F)c3C(F)(F)F)C[C@@H]12 [Example 83]
2.1	N[C@H]1CCN2CCN(c3c(NC(=O)c4ccn(-c5ccnnc5)n4)ccc(Oc4ccccc4F)c3C(F)(F)F)C[C@H]12 [Example 84]
5.2	CN[C@H]1CCN2CCN(c3c(NC(=O)c4ccn(-c5ccnnc5)n4)ccc(Oc4ccccc4F)c3C(F)(F)F)C[C@H]12 [Example 85]
4.1	CNC[C@H]1CN(c2c(NC(=O)c3ccn(-c4ccnnc4)n3)ccc(Oc3ccccc3Cl)c2C(F)(F)F)CCN1C [Example 87]
27	CN1CCN(c2c(NC(=O)c3ccn(-c4ccnnc4)n3)ccc(Oc3ccccc3F)c2C(F)(F)F)C[C@@H]1CNC1CC1 [Example 89]
25	Cc1cc(C(=O)Nc2ccc(Oc3ccccc3Cl)c(C(F)(F)F)c2N2CCC[C@@H](CN)C2)nn1-c1ccnnc1 [Example 91]
2.8	CNC[C@H]1CN(c2c(NC(=O)c3coc(-c4ccnnc4)n3)ccc(Oc3ccccc3Cl)c2Cl)CCN1C [Example 93]
1.4	CNC[C@H]1CN(c2c(NC(=O)c3ccn(-c4ccnnc4)n3)ccc(Oc3ccccc3Cl)c2Cl)CCN1C [Example 94]
3.8	CNC[C@@H]1CN(c2c(NC(=O)c3ccn(-c4ccnnc4)n3)ccc(Oc3ccccc3Cl)c2C(F)(F)F)CCN1C [Example 95]
30	CNC[C@H]1CN(c2c(NC(=O)c3ccn(-c4ccnnc4)n3)ccc(Oc3ccc(F)cc3F)c2C(F)(F)F)CCN1C [Example 96]
12	CNC[C@H]1CN(c2c(NC(=O)c3cnn(-c4ccnnc4)n3)ccc(Oc3ccccc3Cl)c2C(F)(F)F)CCN1C [Example 97]
7.5	CNC[C@H]1CN(c2c(NC(=O)c3coc(-c4ccnnc4)n3)ccc(Oc3ccccc3F)c2Cl)CCN1C [Example 98]
7.5	CNC[C@H]1CN(c2c(NC(=O)c3coc(-c4ccnnc4)n3)cc(F)c(Oc3ccccc3)c2F)CCN1C [Example 106]
8.9	CNC[C@H]1CN(c2c(NC(=O)c3ccn(-c4ccnnc4)n3)cc(F)c(Oc3ccccc3)c2F)CCN1C [Example 108]
21	CN(C)CCOc1cc(-c2c(NC(=O)c3coc(-c4ccnnc4)n3)ccc(OC3CCC3)c2C(F)(F)F)ccn1 [Example 113, N-[4-(cyclobutyloxy)-2-{2-[2-(dimethylamino)ethoxy]pyridin-4-yl}-3-(trifluoromethyl)phenyl]-2-(pyridazin-4-yl)-1,3-oxazole-4-carboxamide]
7.9	CN(C)[C@@H]1CCN2CCN(c3c(NC(=O)c4coc(-c5ccnnc5)n4)ccc(Oc4ccccc4)c3C(F)(F)F)C[C@@H]12 [Example 115]
1.4	CN(C)[C@@H]1CCN2CCN(c3c(NC(=O)c4ccn(-c5ccnnc5)n4)ccc(Oc4ccccc4F)c3C(F)(F)F)C[C@@H]12 [Example 118]
